The text below walks through data of US8673912B2, “Crystalline Forms on N-[3-fluoro-4-({6-(methyloxy)-7-[(3-morpholin-4-ylpropyl)oxy]-quinolin-4-yl}oxy)phenyl]-N′-(4-fluorophenyl)cyclopropane-1,1-dicarboxamide” (Exelixis, Inc., priority 2009, dated 2014).

Common to all, as to format: physicochemical
Data set [1] in a line: Gravimetric Vapor Sorption Study (GVS). Conditions: crystalline Form A prepared in Example 1.1.2. The procedure: The GVS study was run using a standard procedure. Samples were run on a Hiden IGASorp moisture sorption analyzer running CFRSorp software. Sample sizes were typically 10 mg. A moisture adsorption desorption isotherm was performed as outlined below. All samples were loaded/unloaded at typical room humidity and temperature (40% RH, 25° C.) and analyzed afterwards by XRPD. The standard isotherm run is a cycle starting at 40% RH→90%→Dry finishing at 35% RH at 25° C. and 10% RH intervals.

Data set [2] in a line: Karl Fisher water content determination. Conditions: crystalline Form A prepared in Example 1.1.2; measured in duplicate. The procedure: The study was done using a standard procedure. Water contents were measured on a Mettler Toledo DL39 Coulometer using Hydranal AG Oven reagent and an argon purge. Samples were introduced into the vessel as solids weighed out onto a platinum TGA pan which was connected to a subaseal via tweezers to avoid water ingress. Approximately 10 mg of sample was used per titration and each analysis was performed in duplicate. The water content of crystalline Compound (I) prepared in Example 1.1.2 was measured in duplicate and gave an average value of 0.1%.

The nature of data set [3]: Relative thermodynamic stability of crystalline forms. Conditions: forms A and B are enantiotropically related.
Data set [4] in a line: Retention of crystalline form in final tablet (XRPD). Conditions: micronized, high shear wet granulation, compression, optional aqueous film coat. As to the method:
The tablets in this example were prepared with an optional aqueous film coat. Preparation of the intra-granular component involved a high shear wet granulation to make granules to be used for further processing. All components used are conventional for the wet granulation process except for the sodium lauryl sulfate which was added as a bioenhancement agent to enhance the bioavailability of the drug substance. The crystalline Compound (I), form B, was used in a micronized form for bioenhancement, which means that the density of the drug substance is low making it difficult to handle and process. High shear wet granulation is used to produce dense material that is easier to process and make into tablets. The preparation of the extra-granular component was a compression step to make the tablets out of the granules and the added excipients. The excipients used are conventional to allow for the formation of the tablet. The crystalline form of Compound 1, Form B, was retained in the final tablet as confirmed by XRPD.

Consider `COc1cc2c(Oc3ccc(NC(=O)C4(C(=O)Nc5ccc(F)cc5)CC4)cc3F)ccnc2cc1OCCCN1CCOCC1` [Compound (I), N-[3-fluoro-4-({6-(methyloxy)-7-[(3-morpholin-4-ylpropyl)oxy]quinolin-4-yl}oxy)phenyl]-N′-(4-fluorophenyl)cyclopropane-1,1-dicarboxamide], for which the “weight gain (GVS)” value in data set [1] (25° C. and 90% humidity) was determined as 0.5%. For the same molecule, in data set [1] (after isotherm cycle 40% RH to 90% to dry to 35% RH at 25° C.), the “reanalysis of the sample by XRPD after GVS” value is on record as “no change in form”. The “water content (Karl Fisher), average value” in data set [2] came to 0.1%.
In the case of `COc1cc2c(Oc3ccc(NC(=O)C4(C(=O)Nc5ccc(F)cc5)CC4)cc3F)ccnc2cc1OCCCN1CCOCC1` [Form A, N-[3-fluoro-4-({6-(methyloxy)-7-[(3-morpholin-4-ylpropyl)oxy]quinolin-4-yl}oxy)phenyl]-N′-(4-fluorophenyl)cyclopropane-1,1-dicarboxamide], the “temperatures at which the form is believed to be the most thermodynamically stable form” value in data set [3] was “less than 75 °C”.
`COc1cc2c(Oc3ccc(NC(=O)C4(C(=O)Nc5ccc(F)cc5)CC4)cc3F)ccnc2cc1OCCCN1CCOCC1` [Form B, N-[3-fluoro-4-({6-(methyloxy)-7-[(3-morpholin-4-ylpropyl)oxy]quinolin-4-yl}oxy)phenyl]-N′-(4-fluorophenyl)cyclopropane-1,1-dicarboxamide]: the “temperatures at which the form is believed to be the most thermodynamically stable form” value in data set [3] is “greater than 75 °C”. Also, the “crystalline form in the final tablet as confirmed by XRPD” value in data set [4] was “retained”.
